Values of other authors as cited in patent publication US20190125725A1, “PHARMACEUTICAL COMPOSITIONS COMPRISING BRIVARACETAM” (Jubilant Generics Limited, priority 2016, published 2019).

Settings: High solubility and permeability

## CCC[C@@H]1CC(=O)N([C@@H](CC)C(N)=O)C1 [Brivaracetam, (2S)-2-[(4R)-2-oxo-4-propyltetrahydro-1H-pyrrol-1-yl] butanamide]
  Biopharmaceutics Classification System class: class I
